Assay results: US20230365592A1 (Agios Pharmaceuticals, Inc., priority 2022, published 2023)

target: T1, human PAH with the R408W mutation (Homo sapiens, UniProt P00439, R408W); assay: Cell Based Phenylalanine Flux Assay; settings: A375 cells expressing R408W PAH; 24 hrs with compound, then 20 µM sepiapterin and 800 µM 13C9,15N-Phenylalanine for 4 hours; 13C-Tyrosine by LC-MS; average where tested multiple times; read-out: AC50;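 further: after compound treatment, cells received sepiapterin plus isotope-labelled Phenylalanine for 4 hours, then labelled Tyrosine in the medium was quantified, 10-point 2-fold dilution series run in duplicate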
T1 construct: expressed in transfected cells
T1 sequence (P00439 1-452 R408W): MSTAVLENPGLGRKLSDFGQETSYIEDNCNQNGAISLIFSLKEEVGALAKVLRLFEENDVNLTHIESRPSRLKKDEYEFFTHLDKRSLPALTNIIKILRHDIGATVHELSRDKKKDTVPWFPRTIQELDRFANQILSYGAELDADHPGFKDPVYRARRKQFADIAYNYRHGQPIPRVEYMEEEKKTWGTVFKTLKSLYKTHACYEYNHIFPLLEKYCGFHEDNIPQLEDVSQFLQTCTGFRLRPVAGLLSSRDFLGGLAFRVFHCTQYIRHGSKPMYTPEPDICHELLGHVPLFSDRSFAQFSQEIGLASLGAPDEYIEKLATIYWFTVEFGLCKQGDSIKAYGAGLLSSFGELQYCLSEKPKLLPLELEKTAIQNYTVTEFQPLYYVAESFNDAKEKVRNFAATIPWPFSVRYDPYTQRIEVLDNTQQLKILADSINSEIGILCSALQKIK

| Compound | AC50 |
| --- | --- |
| Cc1nc(C(=O)N2CCc3[nH]cnc3C2c2cc3cccc(C(F)(F)F)n3n2)n(C)n1 (centres unmarked) [listing 1 of 2 here] | > 5 µM |
| Cn1ccc(-c2nnc(C(=O)N3CCc4[nH]cnc4C3c3cc4cc(C(F)(F)F)ccn4n3)o2)n1 (centres unmarked) [listing 1 of 2 here] | > 5 µM |
| Cn1cc(-c2nnc(C(=O)N3CCc4[nH]cnc4C3c3cc4cc(C(F)(F)F)ccn4n3)o2)cn1 (centres unmarked) [listing 1 of 2 here] | > 5 µM |
| Cc1c(C2c3nc[nH]c3CCN2C(=O)c2nnc(-c3cnn(C)c3C)o2)nn2ccccc12 (centres unmarked) | 1 to 5 µM |
| CC(C)(F)c1nnc(C(=O)N2CCc3[nH]cnc3C2c2cc3cc(F)ccn3n2)o1 (centres unmarked) | 1 to 5 µM |
| COc1cccn2nc(C3c4nc[nH]c4CCN3C(=O)c3nnc(C)o3)cc12 (centres unmarked) [listing 1 of 2 here] | > 5 µM |
| Cc1nnc(C(=O)N2CCc3[nH]cnc3C2c2cc3cc(F)ccn3n2)o1 (centres unmarked) [listing 1 of 2 here] | 1 to 5 µM |
| Cn1ccc(-c2nnc(C(=O)N3CCc4[nH]cnc4C3c3cc4cc(F)ccn4n3)o2)n1 (centres unmarked) [listing 1 of 2 here] | > 5 µM |
| Cc1nnc(C(=O)N2CCc3[nH]cnc3C2c2cc3cccc(Cl)n3n2)o1 (centres unmarked) [listing 1 of 2 here] | 1 to 5 µM |
| Cc1nnc(C(=O)N2CCc3[nH]cnc3C2c2cc3cccc(F)n3n2)o1 (centres unmarked) [listing 1 of 2 here] | 1 to 5 µM |
| O=C(c1nnc(-c2ccccn2)o1)N1CCc2[nH]cnc2C1c1cc2cc(C(F)(F)F)ccn2n1 (centres unmarked) [listing 1 of 2 here] | 1 to 5 µM |
| O=C(c1nnc(-c2ccccn2)o1)N1CCc2[nH]cnc2C1c1cc2cc(F)ccn2n1 (centres unmarked) [listing 1 of 2 here] | > 5 µM |
| CC(C)(O)c1nnc(C(=O)N2CCc3[nH]cnc3C2c2cc3cccc(C(F)(F)F)n3n2)o1 (centres unmarked) [listing 1 of 2 here] | 1 to 5 µM |
| Cc1c(C2c3nc[nH]c3CCN2C(=O)c2nnc(C3CC3)o2)nn2ccccc12 (centres unmarked) [listing 1 of 2 here] | 1 to 5 µM |
| Cc1ccn2nc(C3c4nc[nH]c4CCN3C(=O)c3nnc(C4CC4)o3)cc2c1 (centres unmarked) [listing 1 of 2 here] | 1 to 5 µM |
| CC(C)(C)c1nnc(C(=O)N2CCc3[nH]cnc3C2c2cc3cc(F)ccn3n2)o1 (centres unmarked) [listing 1 of 2 here] | > 5 µM |
| O=C(c1cnco1)N1CCc2[nH]cnc2C1c1cc2cc(C(F)(F)F)ccn2n1 (centres unmarked) [listing 1 of 2 here] | > 5 µM |
| O=C(c1cnco1)N1CCc2[nH]cnc2C1c1cc2cccc(C(F)(F)F)n2n1 (centres unmarked) [listing 1 of 2 here] | > 5 µM |
| Cn1ncnc1C(=O)N1CCc2[nH]cnc2C1c1cc2cccc(Cl)n2n1 (centres unmarked) [listing 1 of 2 here] | 1 to 5 µM |
| Cc1cccc2cc(C3c4nc[nH]c4CCN3C(=O)c3cnco3)nn12 (centres unmarked) [listing 1 of 2 here] | 1 to 5 µM |
| Cc1nc(C(C)O)oc1C(=O)N1CCc2[nH]cnc2C1c1cc2cccc(Cl)n2n1 (centres unmarked) [listing 1 of 2 here] | > 5 µM |
| O=C(CCc1nccs1)N1CCc2[nH]cnc2C1c1cc2ccccn2n1 (centres unmarked) | 1 to 5 µM |
| O=C(Cc1nncs1)N1CCc2nc[nH]c2C1c1cc2ccccn2n1 (centres unmarked) | 1 to 5 µM |
| Cn1nc(C(F)(F)F)nc1C(=O)N1CCc2[nH]cnc2C1c1cc2cccc(C(F)(F)F)n2n1 (centres unmarked) | 1 to 5 µM |
| CN1CCN(c2nnc(C(=O)N3CCc4[nH]cnc4C3c3cc4ccccn4n3)o2)CC1 (centres unmarked) | > 5 µM |
| Cc1nc(C(=O)N2CCc3[nH]cnc3C2c2cc3cccc(C(F)(F)F)n3n2)n(C)n1 (centres unmarked) [listing 2 of 2 here] | 1 to 5 µM |
| Cc1nc(C(=O)N2CCc3[nH]cnc3C2c2cc3cccc(C)n3n2)n(C)n1 (centres unmarked) | 1 to 5 µM |

| Compound | AC50 |
| --- | --- |
| Cn1ccc(-c2nnc(C(=O)N3CCc4[nH]cnc4C3c3cc4cc(C(F)(F)F)ccn4n3)o2)n1 (centres unmarked) [listing 2 of 2 here] | 1 to 5 µM |
| Cn1cc(-c2nnc(C(=O)N3CCc4[nH]cnc4C3c3cc4cc(C(F)(F)F)ccn4n3)o2)cn1 (centres unmarked) [listing 2 of 2 here] | 1 to 5 µM |
| Cc1c(C2c3nc[nH]c3CCN2C(=O)c2nnc(C(C)(C)F)o2)nn2ccccc12 (centres unmarked) | 1 to 5 µM |
| COc1cccn2nc(C3c4nc[nH]c4CCN3C(=O)c3nnc(C)o3)cc12 (centres unmarked) [listing 2 of 2 here] | 1 to 5 µM |
| Cn1ccc(-c2nnc(C(=O)N3CCc4[nH]cnc4C3c3cc4cc(F)ccn4n3)o2)n1 (centres unmarked) [listing 2 of 2 here] | 1 to 5 µM |
| Cc1nnc(C(=O)N2CCc3[nH]cnc3C2c2cc3cc(F)ccn3n2)o1 (centres unmarked) [listing 2 of 2 here] | 1 to 5 µM |
| Cn1cncc1-c1nnc(C(=O)N2CCc3[nH]cnc3C2c2cc3cccc(Cl)n3n2)o1 (centres unmarked) | 1 to 5 µM |
| Cc1nnc(C(=O)N2CCc3[nH]cnc3C2c2cc3cccc(Cl)n3n2)o1 (centres unmarked) [listing 2 of 2 here] | 1 to 5 µM |
| Cc1nnc(C(=O)N2CCc3[nH]cnc3C2c2cc3cccc(F)n3n2)o1 (centres unmarked) [listing 2 of 2 here] | 1 to 5 µM |
| Cc1nc(C(C)(C)O)oc1C(=O)N1CCc2[nH]cnc2C1c1cc2cccc(C(F)(F)F)n2n1 (centres unmarked) | 1 to 5 µM |
| Cc1nc(C(C)(C)O)oc1C(=O)N1CCc2[nH]cnc2C1c1cc2cccc(C)n2n1 (centres unmarked) | 1 to 5 µM |
| O=C(c1nnc(-c2ccccn2)o1)N1CCc2[nH]cnc2C1c1cc2cc(C(F)(F)F)ccn2n1 (centres unmarked) [listing 2 of 2 here] | 1 to 5 µM |
| CC(C)(O)c1nnc(C(=O)N2CCc3[nH]cnc3C2c2cc3cc(C(F)(F)F)ccn3n2)o1 (centres unmarked) | > 5 µM |
| O=C(c1nnc(-c2ccccn2)o1)N1CCc2[nH]cnc2C1c1cc2cc(F)ccn2n1 (centres unmarked) [listing 2 of 2 here] | 1 to 5 µM |
| CC(C)(O)c1nnc(C(=O)N2CCc3[nH]cnc3C2c2cc3cc(F)ccn3n2)o1 (centres unmarked) | > 5 µM |
| CC(C)(O)c1nnc(C(=O)N2CCc3[nH]cnc3C2c2cc3ccc(C(F)(F)F)cn3n2)o1 (centres unmarked) | 1 to 5 µM |
| CC(C)(O)c1nnc(C(=O)N2CCc3[nH]cnc3C2c2cc3ccc(F)cn3n2)o1 (centres unmarked) | 1 to 5 µM |
| Cc1ccc2cc(C3c4nc[nH]c4CCN3C(=O)c3nnc(C(C)(C)O)o3)nn2c1 (centres unmarked) | 1 to 5 µM |
| CC(C)(O)c1ncc(C(=O)N2CCc3[nH]cnc3C2c2cc3cccc(C(F)(F)F)n3n2)o1 (centres unmarked) | 1 to 5 µM |
| CC(C)(O)c1nnc(C(=O)N2CCc3[nH]cnc3C2c2cc3cccc(C(F)(F)F)n3n2)o1 (centres unmarked) [listing 2 of 2 here] | 1 to 5 µM |
| CC(C)(O)c1nnc(C(=O)N2CCc3[nH]cnc3C2c2cc3cccc(Cl)n3n2)o1 (centres unmarked) | 1 to 5 µM |
| O=C(c1nnc(-c2ccccn2)o1)N1CCCc2[nH]cnc2C1c1cc2ccccn2n1 (centres unmarked) | > 5 µM |
| Cc1c(C2c3nc[nH]c3CCN2C(=O)c2nnc(C3CC3)o2)nn2ccccc12 (centres unmarked) [listing 2 of 2 here] | 1 to 5 µM |
| O=C(c1nnc(C2CC2)o1)N1CCc2[nH]cnc2C1c1cc2cc(C(F)(F)F)ccn2n1 (centres unmarked) | 1 to 5 µM |
| Cc1ccn2nc(C3c4nc[nH]c4CCN3C(=O)c3nnc(C4CC4)o3)cc2c1 (centres unmarked) [listing 2 of 2 here] | 1 to 5 µM |
| O=C(c1nnc(C2CC2)o1)N1CCc2[nH]cnc2C1c1cc2ccc(C(F)(F)F)cn2n1 (centres unmarked) | 1 to 5 µM |
| Cc1nnc(C(=O)N2CCc3[nH]cnc3C2c2cc3cc(C(F)(F)F)ccn3n2)o1 (centres unmarked) | 1 to 5 µM |

| Compound | AC50 |
| --- | --- |
| Cc1nnc(C(=O)N2CCc3[nH]cnc3C2c2cc3ccc(C(F)(F)F)cn3n2)o1 (centres unmarked) | 1 to 5 µM |
| Cc1ccc2cc(C3c4nc[nH]c4CCN3C(=O)c3nnc(C)o3)nn2c1 (centres unmarked) | 1 to 5 µM |
| Cc1nnc(C(=O)N2CCc3[nH]cnc3C2c2cc3cccc(C(F)(F)F)n3n2)o1 (centres unmarked) | 1 to 5 µM |
| Cc1c(C2c3nc[nH]c3CCN2C(=O)c2nnc(C(C)(C)C)o2)nn2ccccc12 (centres unmarked) | 1 to 5 µM |
| CC(C)(C)c1nnc(C(=O)N2CCc3[nH]cnc3C2c2cc3cc(C(F)(F)F)ccn3n2)o1 (centres unmarked) | 1 to 5 µM |
| CC(C)(C)c1nnc(C(=O)N2CCc3[nH]cnc3C2c2cc3cc(F)ccn3n2)o1 (centres unmarked) [listing 2 of 2 here] | 1 to 5 µM |
| CC(C)(C)c1nnc(C(=O)N2CCc3[nH]cnc3C2c2cc3ccc(C(F)(F)F)cn3n2)o1 (centres unmarked) | 1 to 5 µM |
| Cn1nc(C(F)F)nc1C(=O)N1CCc2[nH]cnc2C1c1cc2cccc(C(F)(F)F)n2n1 (centres unmarked) | 1 to 5 µM |
| Cc1cccc2cc(C3c4nc[nH]c4CCN3C(=O)c3cnn4ccccc34)nn12 (centres unmarked) | 1 to 5 µM |
| O=C(c1ocnc1C(F)F)N1CCc2[nH]cnc2C1c1cc2cc(C(F)(F)F)ccn2n1 (centres unmarked) | 1 to 5 µM |
| Cc1c(C2c3nc[nH]c3CCN2C(=O)c2cnco2)nn2ccccc12 (centres unmarked) | 1 to 5 µM |
| O=C(c1cnco1)N1CCc2[nH]cnc2C1c1cc2cc(C(F)(F)F)ccn2n1 (centres unmarked) [listing 2 of 2 here] | 1 to 5 µM |
| O=C(c1cnco1)N1CCc2[nH]cnc2C1c1cc2cc(F)ccn2n1 (centres unmarked) | 1 to 5 µM |
| O=C(c1cnco1)N1CCc2[nH]cnc2C1c1cc2ccc(C(F)(F)F)cn2n1 (centres unmarked) | 1 to 5 µM |
| O=C(c1cnco1)N1CCc2[nH]cnc2C1c1cc2cccc(C(F)(F)F)n2n1 (centres unmarked) [listing 2 of 2 here] | 1 to 5 µM |
| Cc1nc(C(=O)N2CCc3[nH]cnc3C2c2cc3cccc(Cl)n3n2)n(C)n1 (centres unmarked) | > 5 µM |
| O=C(c1cnco1)N1CCc2[nH]cnc2C1c1cc2cccc(Cl)n2n1 (centres unmarked) | 1 to 5 µM |
| Cn1nc(C2CC2)nc1C(=O)N1CCc2[nH]cnc2C1c1cc2cccc(Cl)n2n1 (centres unmarked) | 1 to 5 µM |
| Cn1ncnc1C(=O)N1CCc2[nH]cnc2C1c1cc2cccc(Cl)n2n1 (centres unmarked) [listing 2 of 2 here] | 1 to 5 µM |
| Cc1cccc2cc(C3c4nc[nH]c4CCN3C(=O)c3cnco3)nn12 (centres unmarked) [listing 2 of 2 here] | 1 to 5 µM |
| O=C(C1CC1(F)F)N1CCc2[nH]cnc2C1c1cc2ccccn2n1 (centres unmarked) | 1 to 5 µM |
| O=C(C1CC1)N1CCc2[nH]cnc2C1c1cc2ccccn2n1 (centres unmarked) | 1 to 5 µM |
| Cc1nc(C(C)O)oc1C(=O)N1CCc2[nH]cnc2C1c1cc2cccc(C(F)(F)F)n2n1 (centres unmarked) | 1 to 5 µM |
| Cc1nc(C(C)O)oc1C(=O)N1CCc2[nH]cnc2C1c1cc2cccc(C)n2n1 (centres unmarked) | 1 to 5 µM |
| Cc1nc(C(C)O)oc1C(=O)N1CCc2[nH]cnc2C1c1cc2cccc(Cl)n2n1 (centres unmarked) [listing 2 of 2 here] | 1 to 5 µM |
| CC(O)c1nnc(C(=O)N2CCc3[nH]cnc3C2c2cc3ccccn3n2)o1 (centres unmarked) | 1 to 5 µM |
